Measured values as given in patent US8445207B2, “Genes based on thalidomide, valproic acid and methotrexate treatment for screening of drug inducing teratogenicity and screening method using thereof” (priority 2009, dated 2013).

System: JEG-3 (human placental choriocarcinoma cell line)
Assay: Oligo microarray gene expression in drug-treated JEG-3 (Cy5 treated / Cy3 control)
Format: cell-based
Settings: treated at IC30, up-regulated gene
Procedure: Thalidomide, valproic acid, and methotrexate were treated to human placental choriocarcinoma cell line at the concentrations determined above (Inhibition concentration: the concentration that can kill approximately 30% of the total cells, that is the concentration of 70% viability, IC30). mRNA was extracted from the drug treated cell line, followed by synthesis of cDNA which was labeled with Cy5. The non-treated control was labeled with Cy3. The fluorescence labeled cDNA was hybridized with 41K (thalidomide), 44K (valproic acid, methotrexate) human whole genome oligomicroarray chips (Agilent, USA), followed by fluorescent image scanning to analyze gene expression patterns (see FIG. 4). Volcano Plot of each substance was also attached. Y axis indicates probability (generally converted by −log 10). X axis indicates differential expression, which is presented by log-ratio.
Total RNA was separated from the treated cell by using trizol reagent (Invitrogen Life Technologies, USA) according to the manufacture's instructions, followed by purification using RNeasy mini kit (Qiagen, USA). Genomic DNA was eliminated during RNA purification using RNase-free DNase set (Qiagen, USA).
30 μg of the total RNA obtained above and 2 μg (1 μg/μl) of oligo (dT) primer were mixed, followed by reaction at 65° C. for 10 minutes. Annealing was performed in ice right after the reaction. Reagents were prepared as shown in Table 1 for reverse transcription of the annealed RNA.
The total RNA separated from the control group JEG-3 cells was labeled with Cy3-dUTP (green) and the total RNA separated from the experiment group JEG-3 cells treated with thalidomide, valproic acid and methotrexate was labeled with Cy5-dUTP (red). At this time, the two samples were mixed and purified by Microcon YM-30 column (Millipore, USA).
Hybridization and washing were performed by the manufacturer's (GenoCheck, Korea) instructions. Particularly, hybridization was performed in a 62° C. oven for 12 hours. As a DNA microarray chip, 44 k whole human genome oligo microarray (Agilent, USA) was used. After washing (2 minutes with 2×SSC/0.1% SDS, three minutes with 1×SSC, 2 minutes with 0.2×SSC), the slide was dried by centrifugation at 800 rpm for 3 minutes.
Hybridization image on the slide was scanned with Genepix 4000B (Axon Instruments, USA). Fluorescence image of the chip on which non-hybridized genes had been washed out was obtained by using laser fluorescence scanner. Green fluorescence image indicates the activity of gene specifically expressed in the control group and red fluorescence image indicates the activity of gene specifically expressed in the experimental group. […] Scanned image was analyzed by using GenePix 4.1 software (Axon Instruments, USA) to calculate gene expression rate.

[1] = (j) Response to oxidative stress
[2] = (k) common gene which has no function

## CCCC(CCC)C(=O)O [VPA, valproic acid]
(h) Nervous system development
  Ratio of intermediate value, gene GSTM3 (NM_000849, GLUTATHION E S-TRANSFERASE M3 (BRAIN)): 3.69
  Ratio of intermediate value, gene HEYL (NM_014571, HAIRY/ENHANCER-OF-SPLIT RELATED WITH YRPW MOTIF-LIKE): 2.13
  Ratio of intermediate value, gene IRS2 (NM_003749, INSULIN RECEPTOR SUBSTRATE 2): 2.09
  Ratio of intermediate value, gene KCNQ2 (NM_172109, POTASSIUM VOLTAGE-GATED CHANNEL, KQT-LIKE SUBFAMILY, MEMBER 2): 4.41
  Ratio of intermediate value, gene KDELC1 (NM_015831, ACETYLCHOLINESTERASE (YT BLOOD GROUP)): 2.47
  Ratio of intermediate value, gene KIF5C (AB011103, KINESIN HEAVY CHAIN NEURON-SPECIFIC 2): 11.94
  Ratio of intermediate value, gene MAPT (NM_016835, MICROTUBULE-ASSOCIATED PROTEIN TAU): 3.18
  Ratio of intermediate value, gene MYLIP (NM_013262, MYOSIN REGULATORY LIGHT CHAIN INTERACTING PROTEIN): 2.88
  Ratio of intermediate value, gene NRXN3 (NM_004796, NEUREXIN 3): 2.25
  Ratio of intermediate value, gene PPIL6 (NM_000115, ENDOTHELIN RECEPTOR TYPE B): 3.13
  Ratio of intermediate value, gene PRPS1 (NM_002764, PHOSPHORIBOSYL PYROPHOSPHATE SYNTHETASE 1): 2.12
  Ratio of intermediate value, gene SCG10; SGC10; SCGN10 (S82024, STATHMIN-LIKE 2): 2.41
  Ratio of intermediate value, gene SDFR1 (NM_012428, NEURO-PLASTIN): 2.26
  Ratio of intermediate value, gene SELM (BX537571, FYN ONCOGENE RELATED TO SRC, FGR, YES): 3.34
  Ratio of intermediate value, gene SEMA6C (NM_030913, SEMA DOMAIN, TRANSMEMBRANE DOMAIN (TM), AND CYTOPLASMIC DOMAIN, (SEMAPHORIN) 6C): 2.77
  Ratio of intermediate value, gene TUBB2 (NM_001069, TUBULIN, BETA 2A): 3.11
  Ratio of intermediate value, gene TWSG1 (NM_020648, TWISTED GASTRULATION HOMOLOG 1 (DROSOPHILA)): 2.56
(i) Neuron apoptosis
  Ratio of intermediate value, gene GCLM (CR598364, GLUTAMATE-CYSTEINE LIGASE, MODIFIER SUBUNIT): 2.61
  Ratio of intermediate value, gene GTF2A1 (BC028148, TUMOR NECROSIS FACTOR (TNF SUPERFAMILY, MEMBER 2)): 2.15
  Ratio of intermediate value, gene HPCAL4 (BC028066): 6.07
  Ratio of intermediate value, gene KRAS2 (BC029545, V-HA-RAS HARVEY RAT SARCOMA VIRAL ONCOGENE HOMOLOG): 2.62
  Ratio of intermediate value, gene LIG4 (NM_002312, LIGASE IV, DNA, ATP-DEPENDENT): 2.19
[1]
  Ratio of intermediate value, gene DKFZp761B1514 (AK025742, UNCOUPLING PROTEIN 2 (MITOCHONDRIAL, PROTON CARRIER)): 2.39
  Ratio of intermediate value, gene DYRK3 (BC030009, SELENOPROTEIN P, PLASMA, 1): 5.57
  Ratio of intermediate value, gene FTH1 (BC006523, SERUM/GLUCOCORTICOID REGULATED KINASE 2): 2.13
  Ratio of intermediate value, gene GPX3 (NM_002084, GLUTATHIONE PEROXIDASE 3 (PLASMA)): 2.10
  Ratio of intermediate value, gene HMOX1 (NM_002133, HEME OXYGENASE (DECYCLING) 1): 2.85
  Ratio of intermediate value, gene MOSPD1 (H18681, SULFIREDOXIN 1 HOMOLOG (S. CEREVISIAE)): 3.56
  Ratio of intermediate value, gene RPL4 (AK094940, GLUTAMATE-CYSTEINE LIGASE, CATALYTIC SUBUNIT): 2.49
  Ratio of intermediate value, gene TXNIP (NM_006472, THIOREDOXIN INTERACTING PROTEIN): 4.52
[2]
  Ratio of intermediate value, gene ATP10B (AB018258, ATPase, Class V, type 10B): 2.03
  Ratio of intermediate value, gene BQ186674 (cDNA clone UI-E-EJ1-ajr-f-10-0-UI, Hypothetical gene supported by AF086204): 2.79
  Ratio of intermediate value, gene BX111592 (Transcribed locus, moderately similar to XP_066443.6 PREDICTED: similar to paraneoplastic antigen like 6A): 1.50
  Ratio of intermediate value, gene CGA (NM_000735, Glycoprotein hormones, alpha polypeptide): 2.14
  Ratio of intermediate value, gene COBLL1 (BX649112, COBL-like 1): 1.52
  Ratio of intermediate value, gene CYP19A1 (AK023571, Cytochrome P450, family 19, subfamily A, polypeptide 1): 1.78
  Ratio of intermediate value, gene FLJ11017 (AK001879, Hypothetical protein FLJ11017): 1.87
  Ratio of intermediate value, gene GLCCI1 (AK126731, Glucocorticoid induced transcript 1): 2.27
  Ratio of intermediate value, gene KIAA0310 (AB002308, KIAA0310): 1.59
  Ratio of intermediate value, gene MGC27016 (AK125877, Hypothetical protein MGC27016): 2.62
  Ratio of intermediate value, gene NCOA3 (NM_181659, Nuclear receptor coactivator 3): 1.62
  Ratio of intermediate value, gene RGS2 (BC042755, Regulator of G-protein signalling 2, 24 kDa): 3.04
  Ratio of intermediate value, gene SIAT7A (BC063830, ST6 (alpha-N-acetyl-neuraminyl-2,3-beta-galactosyl-1,3)-N-acetylgalactosaminide alpha-2,6-sialyltransferase 1): 1.69
  Ratio of intermediate value, gene SIAT8D (NM_005668, ST8 alpha-N-acetyl-neuraminide alpha-2,8-sialyltransferase 4): 1.79
  Ratio of intermediate value, gene SLC7A8 (Y18483, Solute carrier family 7 (cationic amino acid transporter, y+ system), member 8): 2.48
  Ratio of intermediate value, gene SLC40A1 (AK023574, Solute carrier family 40 (iron-regulated transporter), member 1): 1.70
  Ratio of intermediate value, gene TFCP2L4 (BC036890, Grainyhead-like 3 (Drosophila)): 3.12
  Ratio of intermediate value, gene TTF2 (AB209845, Transcription termination factor, RNA polymerase II): 1.81
  Ratio of intermediate value, gene TUBB3 (AK122757, Tubulin, beta 3): 1.70
  Ratio of intermediate value, gene TncRNA (AF001893, Trophoblast-derived noncoding RNA): 3.61
